Laboratory results reported in patent US10219516B2, “Molecules having pesticidal utility, and intermediates, compositions, and processes, related thereto” (priority 2015, dated 2019).

Legend:
Assay type in all cases: in vivo
[1] = tested on: Cabbage Looper (Trichoplusia ni, TRIPNI); assay: Bioassay on Cabbage Looper (CL), 128-well diet tray assay; details: Trichoplusia ni; Species CL (Cabbage Looper); read-out: CL (Biological Results, rating)
Method in brief: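 Mortality of second instar larvae exposed to diet coated with 50 μg/cm^2 compound (acetone-water 90:10 vehicle, dried); 25° C., 5–7 days.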

[2] = tested on: Yellow Fever Mosquito (Aedes aegypti, AEDSAE); assay: Bioassay on Yellow Fever Mosquito (YFM), 96-well plate larval assay; details: Species YFM (Yellow Fever Mosquito)
Description: Certain molecules disclosed in this document were tested against YFM using procedures described in the following paragraph. In the reporting of the results, the “GPA & YFM Rating Table” was used (See Table Section).
Master plates containing 400 μg of a molecule dissolved in 100 μL of dimethyl sulfoxide (DMSO) (equivalent to a 4000 ppm solution) are used. A master plate of assembled molecules contains 15 μL per well. To this plate, 135 μL of a 90:10 water/acetone mixture is added to each well. A robot is programmed to dispense 15 μL aspirations from the master plate into an empty 96-well shallow plate (“daughter” plate). There are 6 reps (“daughter” plates) created per master. The created “daughter” plates are then immediately infested with YFM larvae.
The day before plates are to be treated, mosquito eggs are placed in Millipore water containing liver powder to begin hatching (4 g. into 400 mL). After the “daughter” plates are created using the robot, they are infested with 220 μL of the liver powder/larval mosquito mixture (about 1 day-old larvae). After plates are infested with mosquito larvae, a non-evaporative lid is used to cover the plate to reduce drying. Plates are held at room temperature for 3 days prior to grading. After 3 days, each well is observed and scored based on mortality. The results are indicated in the table entitled “Table ABC: Biological Results” (See Table Section).

[3] = tested on: Beet Armyworm (Spodoptera exigua, LAPHEG); assay: Bioassay on Beet Armyworm (BAW), 128-well diet tray assay; details: Species BAW (Beet Armyworm), read-out: BAW (Biological Results, rating)
Method in brief: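 Artificial diet surface-treated with 50 μg/cm^2 test molecule in 90:10 acetone-water, dried, then infested with one to five second instar larvae per well. Held covered and vented at 25° C., 14:10 light-dark for five to seven days; percent mortality recorded per well and averaged over eight wells.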

| SMILES | pest or weed control at 50 µg/cm2 [1] [%] | YFM (Biological Results, rating) [2] | pest or weed control at 50 µg/cm2 [3] [%] |
| --- | --- | --- | --- |
| O=C(Nc1ccc(Cl)nc1)c1cc(NC(=O)[C@H]2[C@H](c3cc(Cl)cc(Cl)c3)C2(Cl)Cl)ccc1Cl (relative stereo) [F32, trans-2-Chloro-N-(6-chloropyridin-3-yl)-5-(2,2-dichloro-3-(3,5-dichlorophenyl)cyclopropane-1-carboxamido)benzamide] | 50 to 100 | A (80-100) | 50 to 100 |
| O=C(Nc1ccc(F)cc1)c1cc(NC(=O)[C@H]2[C@H](c3cccc(C(F)(F)F)c3)C2(Cl)Cl)ccc1Cl (relative stereo) [F56, trans-2-Chloro-5-(2,2-dichloro-3-(3-(trifluoromethyl)phenyl)cyclopropane-1-carboxamido)-N-(4-fluorophenyl)benzamide] | 50 to 100 | B (More than 0-Less than 80) | 50 to 100 |
| CN(C(=O)c1cc(NC(=O)[C@H]2[C@H](c3cccc(C(F)(F)F)c3)C2(Cl)Cl)ccc1Cl)c1ccc(F)cc1 (relative stereo) [F57, trans-2-Chloro-5-(2,2-dichloro-3-(3-(trifluoromethyl)phenyl)cyclopropane-1-carboxamido)-N-(4-fluorophenyl)-N-methylbenzamide] | 50 to 100 | B (More than 0-Less than 80) | 50 to 100 |
| O=C(Nc1c(F)cccc1F)c1cc(NC(=O)[C@H]2[C@H](c3cccc(C(F)(F)F)c3)C2(Cl)Cl)ccc1Cl (relative stereo) [F58, trans-2-Chloro-5-(2,2-dichloro-3-(3-(trifluoromethyl)phenyl)cyclopropane-1-carboxamido)-N-(2,6-difluorophenyl)benzamide] | 50 to 100 | A (80-100) | 50 to 100 |
| CN(C(=O)c1cc(NC(=O)[C@H]2[C@H](c3ccc(Cl)c(Cl)c3)C2(Cl)Cl)ccc1F)c1ccc(F)cc1 (relative stereo) [F59, trans-5-(2,2-Dichloro-3-(3,4-dichlorophenyl)cyclopropane-1-carboxamido)-2-fluoro-N-(4-fluorophenyl)-N-methylbenzamide] | 50 to 100 | A (80-100) | 50 to 100 |
| O=C(Nc1ccc(F)cc1F)c1cc(NC(=O)[C@H]2[C@H](c3cc(Cl)cc(Cl)c3)C2(Cl)Cl)ccc1F (relative stereo) [F61, trans-5-(2,2-Dichloro-3-(3,5-dichlorophenyl)cyclopropane-1-carboxamido)-N-(2,4-difluorophenyl)-2-fluorobenzamide] | 50 to 100 | B (More than 0-Less than 80) | 50 to 100 |
| O=C(Nc1ccc(F)cc1F)c1cc(NC(=O)[C@H]2[C@H](c3ccc(Cl)c(Cl)c3)C2(Cl)Cl)ccc1F (relative stereo) [F62, trans-5-(2,2-Dichloro-3-(3,4-dichlorophenyl)cyclopropane-1-carboxamido)-N-(2,4-difluorophenyl)-2-fluorobenzamide] | 50 to 100 | B (More than 0-Less than 80) | 50 to 100 |
| CN(C(=O)c1cc(NC(=O)[C@H]2[C@H](c3cc(Cl)cc(Cl)c3)C2(Cl)Cl)ccc1F)c1ccc(F)cc1F (relative stereo) [F63, trans-5-(2,2-Dichloro-3-(3,5-dichlorophenyl)cyclopropane-1-carboxamido)-N-(2,4-difluorophenyl)-2-fluoro-N-methylbenzamide] | 50 to 100 | A (80-100) | 50 to 100 |
| CN(C(=O)c1cc(NC(=O)[C@H]2[C@H](c3cc(Cl)c(Cl)c(Cl)c3)C2(Cl)Cl)ccc1F)c1ccc(F)cc1F (relative stereo) [F65, trans-5-(2,2-Dichloro-3-(3,4,5-trichlorophenyl)cyclopropane-1-carboxamido)-N-(2,4-difluorophenyl)-2-fluoro-N-methylbenzamide] | 50 to 100 | A (80-100) | 50 to 100 |
| CN(C(=O)c1cc(NC(=O)[C@H]2[C@H](c3cc(Cl)cc(Cl)c3)C2(Cl)Cl)ccc1F)c1ccccc1 (relative stereo) [F66, trans-5-(2,2-Dichloro-3-(3,5-dichlorophenyl)cyclopropane-1-carboxamido)-2-fluoro-N-methyl-N-phenylbenzamide] | 50 to 100 | A (80-100) | 50 to 100 |
| CN(C(=O)c1cc(NC(=O)[C@H]2[C@H](c3ccc(Cl)c(Cl)c3)C2(Cl)Cl)ccc1F)c1ccccc1 (relative stereo) [F67, trans-5-(2,2-Dichloro-3-(3,4-dichlorophenyl)cyclopropane-1-carboxamido)-2-fluoro-N-methyl-N-phenylbenzamide] | 50 to 100 | B (More than 0-Less than 80) | 50 to 100 |
| CN(C(=O)c1cc(NC(=O)[C@H]2[C@H](c3cc(Cl)c(Cl)c(Cl)c3)C2(Cl)Cl)ccc1F)c1ccccc1 (relative stereo) [F68, trans-5-(2,2-Dichloro-3-(3,4,5-trichlorophenyl)cyclopropane-1-carboxamido)-2-fluoro-N-methyl-N-phenylbenzamide] | 50 to 100 | B (More than 0-Less than 80) | 50 to 100 |
| CN(C(=O)c1cccc(NC(=O)[C@H]2[C@H](c3cc(Cl)cc(Cl)c3)C2(Cl)Cl)c1F)c1ccccc1 (relative stereo) [F69, trans-3-(2,2-Dichloro-3-(3,5-dichlorophenyl)cyclopropane-1-carboxamido)-2-fluoro-N-methyl-N-phenylbenzamide] | 50 to 100 | B (More than 0-Less than 80) | 50 to 100 |
| CN(C(=O)c1cccc(NC(=O)[C@H]2[C@H](c3ccc(Cl)c(Cl)c3)C2(Cl)Cl)c1F)c1ccccc1 (relative stereo) [F70, trans-3-(2,2-Dichloro-3-(3,4-dichlorophenyl)cyclopropane-1-carboxamido)-2-fluoro-N-methyl-N-phenylbenzamide] | 50 to 100 | A (80-100) | 50 to 100 |
| CN(C(=O)c1cccc(NC(=O)[C@H]2[C@H](c3cc(Cl)c(Cl)c(Cl)c3)C2(Cl)Cl)c1F)c1ccccc1 (relative stereo) [F71, trans-3-(2,2-Dichloro-3-(3,4,5-trichlorophenyl)cyclopropane-1-carboxamido)-2-fluoro-N-methyl-N-phenylbenzamide] | 50 to 100 | B (More than 0-Less than 80) | 50 to 100 |
| CN(C(=O)c1cc(NC(=O)[C@H]2[C@H](c3cc(Cl)c(Cl)cc3Cl)C2(Cl)Cl)ccc1Cl)c1ccc(F)cc1 (relative stereo) [F74, trans-2-Chloro-5-(2,2-dichloro-3-(2,4,5-trichlorophenyl)cyclopropane-1-carboxamido)-N-(4-fluorophenyl)-N-methylbenzamide] | 50 to 100 | B (More than 0-Less than 80) | 50 to 100 |
| O=C(Nc1ccc(F)cc1F)c1cc(NC(=O)[C@H]2[C@H](c3cc(Cl)c(Cl)c(Cl)c3)C2(Cl)Cl)ccc1F (relative stereo) [F75, trans-5-(2,2-Dichloro-3-(3,4,5-trichlorophenyl)cyclopropane-1-carboxamido)-N-(2,4-difluorophenyl)-2-fluorobenzamide] | 50 to 100 | A (80-100) | 50 to 100 |
| O=C(Nc1ccc(F)cc1)c1cc(NC(=O)[C@H]2[C@H](c3ccc(C(F)(F)F)cc3)C2(Cl)Cl)ccc1Cl (relative stereo) [F81, trans-2-Chloro-5-(2,2-dichloro-3-(4-(trifluoromethyl)phenyl)cyclopropane-1-carboxamido)-N-(4-fluorophenyl)benzamide] | 50 to 100 | A (80-100) | 50 to 100 |
| CN(C(=O)c1cc(NC(=O)[C@H]2[C@H](c3ccc(C(F)(F)F)cc3)C2(Cl)Cl)ccc1Cl)c1ccc(F)cc1 (relative stereo) [F82, trans-2-Chloro-5-(2,2-dichloro-3-(4-(trifluoromethyl)phenyl)cyclopropane-1-carboxamido)-N-(4-fluorophenyl)-N-methylbenzamide] | 50 to 100 | B (More than 0-Less than 80) | 50 to 100 |
